Patent publication US10040789B2, “1,3,4-thiadiazole compounds and their use in treating cancer” (AstraZeneca AB, priority 2015, dated 2018)
Read-outs that look alike come from different tables or passages of the source.

How the values were obtained:
[1] = target: GLS1 (Homo sapiens (Human), UniProt O94925); assay: GLS Enzyme Potency Assay (Glutamate Oxidase/AmplexRed coupled assay); assay type: biochemical
Text: (§1) The following assays were used to measure the effects of the compounds described herein: a) GLS Enzyme Potency Assay; b) GLS Cell Potency Assay; c) GLS Cell Proliferation Assay. During the description of the assays, generally: • i. The following abbreviations have been used: CO2=Carbon dioxide; DMEM=Dulbecco's Modified Eagle Medium; DMSO=Dimethyl sulphoxide; EDTA=Ethylenediaminetetraacetic acid; EGTA=Ethylene glycol tetraacetic acid; FCS=Foetal calf serum; h=Hour(s); NBS=Non-binding surface; SDS=Sodium dodecyl sulphate; TRIS=Tris(Hydroxymethyl)aminomethane. • ii. IC50 values were calculated using a smart fitting model in Genedata.
Assay a): GLS Enzyme Potency Assay
A Glutamate Oxidase/AmplexRed coupled assay was used to measure the ability of compounds to bind to and inhibit the activity of GLS1 in vitro. […] GLS1 was diluted to 2×working concentration and incubated at room temperature to allow the tetrameric/dimeric forms to reach steady state. Assay measurements were performed in buffer comprising 50 mM TRIS pH 7.8, 100 mM NaPO4, pH 7.8, 0.001% v/v Tween20. […] DMSO concentration was maintained at 2% by back filling with DMSO solution. […] 3 μL of 100 mM glutamine diluted in assay buffer was then added and the reaction incubated at room temperature for 60 minutes. […] An artefact version of the assay where the 6His tagged GLS protein and glutamine were replaced with assay buffer was also used to rule out non specific effects on the assay components.

[2] = target: cellular GLS activity in PC3 cells (Homo sapiens (Human), UniProt O94925); assay: GLS Cell Potency Assay (PC3 coupled assay measuring cellular glutamate depletion); assay type: cell-based; conditions: PC3 cells, 6 h incubation, cellular glutamate depletion; read-out: Assay b) GLS cell MOA Mean IC50
cellular GLS activity in PC3 cells, sequence (O94925 55-669): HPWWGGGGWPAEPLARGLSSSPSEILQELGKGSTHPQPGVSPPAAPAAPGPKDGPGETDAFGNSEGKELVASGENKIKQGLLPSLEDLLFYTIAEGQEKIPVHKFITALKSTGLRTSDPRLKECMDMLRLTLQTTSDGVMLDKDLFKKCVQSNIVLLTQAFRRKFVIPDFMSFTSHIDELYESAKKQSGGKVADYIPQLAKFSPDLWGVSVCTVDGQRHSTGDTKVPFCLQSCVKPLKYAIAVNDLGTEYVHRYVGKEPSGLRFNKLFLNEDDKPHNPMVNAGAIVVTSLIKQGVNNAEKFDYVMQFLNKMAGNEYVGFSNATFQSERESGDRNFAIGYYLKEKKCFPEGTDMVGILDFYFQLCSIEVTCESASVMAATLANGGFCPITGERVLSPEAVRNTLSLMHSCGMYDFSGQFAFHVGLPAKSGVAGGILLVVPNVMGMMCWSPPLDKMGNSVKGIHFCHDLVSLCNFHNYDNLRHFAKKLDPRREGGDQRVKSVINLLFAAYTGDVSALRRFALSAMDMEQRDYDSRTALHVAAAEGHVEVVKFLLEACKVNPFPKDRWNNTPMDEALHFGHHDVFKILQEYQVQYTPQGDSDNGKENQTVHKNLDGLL
Text: as §1
Assay b): GLS Cell Potency Assay
Compounds were assessed for their potential to inhibit cellular GLS activity by use of a PC3 coupled assay measuring cellular glutamate depletion. […] DMSO concentration was maintained at 0.3% by back filling with DMSO solution. PC3 cells were grown in phenol free DMEM, 10% dialyzed FCS, 2 mM glutamine and following dispersal by trypsinisation were plated at 5.6×10^3 cells per well in 40 μl of growth medium directly into the 384 well assay plates containing dispensed compound. After incubation for 6 h at 37° C., 5% CO2 growth media was aspirated and cells lysed in 15 μl of buffer containing 10 mM TRIS pH7.4, 100 mM NaCl, 1 mM EDTA, 1 mM EGTA, 1 mM NaF, 20 mM Na4P2O7, 2 mM Na3VO4, 1% Triton X-100, 10% glycerol, 0.1% SDS and 0.5% deoxycholate. 4 μl Of cell lysate was then transferred to a 384 well NBS plate (Corning product code 3575) and 35 μl of […] Amplex Red, 0.1375 U/mL Horseradish Peroxidase, 0.044 U/mL glutamate oxidase, 100 mM TRIS pH7.5 was added.

[3] = system: NCI-H1703 cells; assay: GLS Cell Proliferation Assay (NCI-H1703 cell proliferation); assay type: cell-based
Text: as §1
Assay c): GLS Cell Proliferation Assay
The ability of compounds to inhibit cell growth was measured using a 384 well plate NCI-H1703 cell proliferation assay. NCI-H1703 cells were grown in phenol red free RPMI1640, 10% FCS and 2 mM glutamine and seeded at a density of 750 cells per well in 40 μl of growth medium into clear-bottom 384 well assay plates (Corning product code 3712) and incubated for 24 h at 37° C., 5% CO2. Test compounds were prepared by dilution in 100% DMSO to give the correct dose range for 12 point concentration response and an appropriate volume (5-120 nl) dispensed directly into the assay plates containing plated cells. DMSO concentration was maintained at 0.3% by back filling with DMSO solution. Plates were incubated for 5 days at 37° C., 5% CO2, Sytox Green and Saponin added to final concentration of 2 μM and 0.25% respectively and incubated for 6 h prior to analysis. Plates were read on an Acumen eX3 (TTP Labtech) using 488 nm excitation and FITC filter set (500-530 nm) for emission. IC50 values were calculated by curve fitting to max inhibition of day zero growth using GeneData software analysis.

[4] = recombinant 6His tagged GLS protein (amino acids 63-669), 60 minutes reaction with glutamine
[5] = Homo sapiens, 120 h; NCI-H1703 cells, 5 days incubation, Sytox Green; read-out: Assay c) Prolif Mean IC50
[6] = NCI-H1703 cells, 5 days incubation, Sytox Green; read-out: Assay c) Prolif Mean IC50
[7] = Homo sapiens, NCI-H1703, 120 h, NCI-H1703 cells, 5 days incubation, Sytox Green; read-out: Assay c) Prolif Mean IC50

GLS1, sequence (O94925 63-669): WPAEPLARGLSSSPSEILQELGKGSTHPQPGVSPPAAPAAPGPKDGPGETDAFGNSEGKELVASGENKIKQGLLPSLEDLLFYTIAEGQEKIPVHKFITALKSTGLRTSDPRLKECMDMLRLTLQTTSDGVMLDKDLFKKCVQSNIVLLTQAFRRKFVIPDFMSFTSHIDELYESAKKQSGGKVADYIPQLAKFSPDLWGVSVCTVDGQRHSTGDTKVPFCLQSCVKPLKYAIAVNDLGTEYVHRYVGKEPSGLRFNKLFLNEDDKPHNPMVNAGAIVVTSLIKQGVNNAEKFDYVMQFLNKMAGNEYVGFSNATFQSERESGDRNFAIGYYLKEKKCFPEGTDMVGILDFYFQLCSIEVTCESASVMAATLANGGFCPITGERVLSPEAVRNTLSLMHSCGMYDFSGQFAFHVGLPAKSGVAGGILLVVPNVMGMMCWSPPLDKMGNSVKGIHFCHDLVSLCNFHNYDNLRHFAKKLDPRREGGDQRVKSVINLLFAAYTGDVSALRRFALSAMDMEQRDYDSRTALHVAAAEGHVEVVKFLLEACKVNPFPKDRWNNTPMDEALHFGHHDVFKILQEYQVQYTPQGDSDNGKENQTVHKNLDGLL

SMILES | IC50 [1, 4] [nM] | IC50 [2] [nM] | IC50 [1] [nM] | IC50 [3, 5] [nM] | IC50 [3, 6] [nM] | IC50 [3, 7] [nM]
O=C(Nc1nnc(N[C@@H]2CCN(c3ccc(F)nn3)C2)s1)[C@H](c1cccc(OC(F)(F)F)c1)N1CCC1 [Example 12(a), (2S)-2-(azetidin-1-yl)-N-[5-[[(3R)-1-(6-fluoropyridazin-3-yl)pyrrolidin-3-yl]amino]-1,3,4-thiadiazol-2-yl]-2-[3-(trifluoromethoxy)phenyl]acetamide] | 2510 | 15.3 |  | 11.6 |  | 
CN(C)[C@H](C(=O)Nc1nnc(N[C@@H]2CCN(c3cccnn3)C2)s1)c1ccccc1 [Example 1(a), (2S)-2-(Dimethylamino)-2-phenyl-N-[5-[[(3R)-1-pyridazin-3-ylpyrrolidin-3-yl]amino]-1,3,4-thiadiazol-2-yl]acetamide] |  |  |  | 68.6 |  | 
O=C(Nc1nnc(N[C@@H]2CCN(c3cccnn3)C2)s1)[C@H](c1cccc(OC(F)F)c1)N1CCC1 [Example 5(a), (2S)-2-(azetidin-1-yl)-2-[3-(difluoromethoxy)phenyl]-N-[5-[[(3R)-1-pyridazin-3-ylpyrrolidin-3-yl]amino]-1,3,4-thiadiazol-2-yl]acetamide] |  |  |  | 29.3 |  | 
O=C(Nc1nnc(N[C@@H]2CCN(c3ccc(F)nn3)C2)s1)[C@@H](c1cccc(OC(F)(F)F)c1)N1CCC1 [Example 12(b), (2R)-2-(azetidin-1-yl)-N-[5-[[(3R)-1-(6-fluoropyridazin-3-yl)pyrrolidin-3-yl]amino]-1,3,4-thiadiazol-2-yl]-2-[3-(trifluoromethoxy)phenyl]acetamide] |  | 1.41 | 246 | 12.9 |  | 
O=C(Nc1nnc(N[C@@H]2CCN(c3cccnn3)C2)s1)[C@@H](c1cccc(OC(F)F)c1)N1CCC1 (single isomer, unassigned) [Example 5(b)] |  |  |  | 13.2 |  | 
CN(C)[C@@H](C(=O)Nc1nnc(N[C@@H]2CCN(c3cccnn3)C2)s1)c1ccccc1 (single isomer, unassigned) [Example 1(b)] |  |  |  | 54.7 |  | 
CN(C)[C@H](C(=O)Nc1nnc(N[C@@H]2CCN(c3cccnn3)C2)s1)c1cccc(OC(F)F)c1 [Example 3(a), (2S)-2-[3-(difluoromethoxy)phenyl]-2-(dimethylamino)-N-[5-[[(3R)-1-pyridazin-3-ylpyrrolidin-3-yl]amino]-1,3,4-thiadiazol-2-yl]acetamide] | 261 | 11.2 |  | 12.7 |  | 
CN(C)[C@@H](C(=O)Nc1nnc(N[C@@H]2CCN(c3cccnn3)C2)s1)c1cccc(OC(F)F)c1 [Example 3(b), (2R)-2-[3-(difluoromethoxy)phenyl]-2-(dimethylamino)-N-[5-[[(3R)-1-pyridazin-3-ylpyrrolidin-3-yl]amino]-1,3,4-thiadiazol-2-yl]acetamide] |  | 0.295 | 52.4 | 8.25 |  | 
CN(C)[C@@H](C(=O)Nc1nnc(N[C@@H]2CCN(c3cccnn3)C2)s1)c1cccc(OC(F)(F)F)c1 (single isomer, unassigned) [Example 4(b)] |  | 1.91 | 522 |  |  | 2.52
CN(C)[C@@H](C(=O)Nc1nnc(N[C@@H]2CCN(c3cccnn3)C2)s1)c1ccc(F)cc1 (single isomer, unassigned) [Example 2(b)] |  |  |  | 97.9 |  | 
CN(C)[C@H](C(=O)Nc1nnc(N[C@@H]2CCN(c3cccnn3)C2)s1)c1ccc(F)cc1 [Example 2(a), (2S)-2-(dimethylamino)-2-(4-fluorophenyl)-N-[5-[[(3R)-1-pyridazin-3-ylpyrrolidin-3-yl]amino]-1,3,4-thiadiazol-2-yl]acetamide] |  |  |  | 89.6 |  | 

The remaining compounds from weak to strong by IC50 [2], led by results:

IC50 [1, 4] [nM] | IC50 [2] [nM] | IC50 [1] [nM] | SMILES | IC50 [3, 5] [nM] | IC50 [3, 6] [nM] | IC50 [3, 7] [nM]
952 | 30.8 |  | O=C(Nc1nnc(N[C@@H]2CCN(c3cccnn3)C2)s1)[C@H](c1ccc(F)c(OC(F)(F)F)c1)N1CCC1 [Example 11(a), (2S)-2-(Azetidin-1-yl)-2-[4-fluoro-3-(trifluoromethoxy)phenyl]-N-[5-[[(3R)-1-pyridazin-3-ylpyrrolidin-3-yl]amino]-1,3,4-thiadiazol-2-yl]acetamide] |  |  | 19.1
 | 29.7 | 944 | COc1cccc([C@H](C(=O)Nc2nnc(N[C@@H]3CCN(c4cccnn4)C3)s2)N2CCC2)c1 (single isomer, unassigned) [Example 6(b)] |  |  | 80.8
3750 | 22.2 |  | COc1ccc([C@H](C(=O)Nc2nnc(N[C@@H]3CCN(c4cccnn4)C3)s2)N(C)C)cc1 [Example 15, (2R)-2-(dimethylamino)-2-(4-methoxyphenyl)-N-[5-[[(3R)-1-pyridazin-3-ylpyrrolidin-3-yl]amino]-1,3,4-thiadiazol-2-yl]acetamide] |  |  | 152
2260 | 10.2 |  | CN(C)[C@@H](C(=O)Nc1nnc(N[C@@H]2CCN(c3cccnn3)C2)s1)c1cccc(OC(F)(F)F)c1 [Example 14, (2R)-2-(dimethylamino)-N-[5-[[(3R)-1-pyridazin-3-ylpyrrolidin-3-yl]amino]-1,3,4-thiadiazol-2-yl]-2-[3-(trifluoromethoxy)phenyl]acetamide] |  |  | 5.23
1330 | 8.61 |  | O=C(Nc1nnc(N[C@@H]2CCN(c3cccnn3)C2)s1)[C@H](c1cccc(OC(F)(F)F)c1)N1CCC1 [Example 7(a), (2S)-2-(azetidin-1-yl)-N-[5-[[(3R)-1-pyridazin-3-ylpyrrolidin-3-yl]amino]-1,3,4-thiadiazol-2-yl]-2-[3-(trifluoromethoxy)phenyl]acetamide] | 6.24 |  | 
132 | 2.81 |  | Cc1ccc([C@@H](C(=O)Nc2nnc(N[C@@H]3CCN(c4cccnn4)C3)s2)N(C)C)cc1 [Example 9, (2S)-2-(dimethylamino)-2-(4-methylphenyl)-N-[5-[[(3R)-1-pyridazin-3-ylpyrrolidin-3-yl]amino]-1,3,4-thiadiazol-2-yl]acetamide] | 44.8 |  | 
 | 1.77 | 132 | O=C(Nc1nnc(N[C@@H]2CCN(c3cccnn3)C2)s1)[C@@H](c1ccc(F)c(OC(F)(F)F)c1)N1CCC1 (single isomer, unassigned) [Example 11(b)] |  |  | 30.1
182 | 1.1 |  | CN(C)[C@H](C(=O)Nc1nnc(N[C@@H]2CCN(c3cccnn3)C2)s1)c1cccc(OC(F)(F)F)c1 [Example 18, (2S)-2-(dimethylamino)-N-[5-[[(3R)-1-pyridazin-3-ylpyrrolidin-3-yl]amino]-1,3,4-thiadiazol-2-yl]-2-[3-(trifluoromethoxy)phenyl]acetamide] |  | 3.51 | 
 | 0.985 | 102 | O=C(Nc1nnc(N[C@@H]2CCN(c3cccnn3)C2)s1)[C@@H](c1cccc(OC(F)(F)F)c1)N1CCC1 [Example 7(b), (2R)-2-(azetidin-1-yl)-N-[5-[[(3R)-1-pyridazin-3-ylpyrrolidin-3-yl]amino]-1,3,4-thiadiazol-2-yl]-2-[3-(trifluoromethoxy)phenyl]acetamide] | 2.45 |  | 
56.4 | 0.405 |  | CN(C)[C@H](C(=O)Nc1nnc(N[C@@H]2CCN(c3cccnn3)C2)s1)c1cccc(OC(F)(F)F)c1 [Example 4(a), (2S)-2-(dimethylamino)-N-[5-[[(3R)-1-pyridazin-3-ylpyrrolidin-3-yl]amino]-1,3,4-thiadiazol-2-yl]-2-[3-(trifluoromethoxy)phenyl]acetamide] |  | 8.41 | 
